Columns and labels:
[1] = system: HDMEC infected with Nm2C4.3; experiment: Cytoskeleton remodelling and endothelial cell junction integrity of infected HDMEC (Ezrin, Actin, VE-cadherin immunostaining); format: cell-based, human
Procedure: (A) Experimental procedure: HDMEC were infected for 2 h with Nm2C4.3, treated for 1 h with gentamicin (150 μg/ml) and then 15 min with Trifluoperazine (50 μM) (or solvent alone as a control) and left in medium for 1 h before fixation. (B) Upper panels: Representative fluorescence microscopy showing the effect on the endothelial cell cytoskeleton remodelling analysed by immunostaining of Ezrin and Actin. Lower panels: Effect on the endothelial cell junction integrity was analysed by immunostaining of Actin and VE-cadherin. (C) Quantification of the bacterial colonization (upper panel) Ezrin recruitment and cortical actin polymerization at sites of bacterial adhesion (lower panel) was performed using Image J software.
HDMECs were grown in their specific culture medium (Promocell #C-12210) and confluent monolayers were infected with 2C4.3. Briefly, bacteria were precultured in prewarmed cell culture medium for 1 h 30 min at 37° C. 5% CO2. The OD600 was adjusted to 0.1 and HDMECs were then overlaid with bacteria for 30 min (MOI of 100). Unbound bacteria were removed by three washes in cell culture media and infection was allowed to proceed for 1 h at 37° C. 5% CO2. Gentamicin was added at 150 μg/ml for 1 h, then after three washes in cell culture media, Trifluoperazine was applied where mentioned at 50 μM for 20 min. After three washes in cell culture media, cells were allowed to recover for 1 h in cell culture media. At the indicated time, cells were fixed with 4% Paraformaldehyde for 10 min. Immunolabelling was then performed as above described in example 4, using DAPI, Alexa Fluor 633 Phalloidin, Polyclonal antisera raised against Ezrin, obtained from Pr P. Mangeat (CRBM, Montpellier, France) and anti-human VE-Cadherin (eBioscience #BMS158). When indicated, HBMECs were grown on Thermanox coverslips coated with gelatin 2% for 2 days to reach confluency. Cells were then infected as above described in the presence or in the absence of 5 μM Trifluoperazine for 2 h. Cells were washed and fixed in 4% paraformaldehyde and immunolabelling was performed with a polyclonal antisera raised anti-Nm2C4.3 strain, anti-human PECAM-1 mouse monoclonal, clone HEC7 (ABCAM ab119339) or rabbit polyclonal 177 raised against PECAM-1, obtained from WA Muller (Northwestern University, Chicago, Ill., US), anti-[…] catenin (05-482, UBI), polyclonal antisera raised against Ezrin, Alexa Fluor 633 Phalloidin. Secondary antibodies were from Jackson ImmunoResearch Laboratories. Image acquisitions were performed on a Leica DM16000 with Yokogawa CSU-X1M1 system and CoolSnap HQ2 (Photometrics). Quantifications were done using ImageJ software (NIH).

[2] = system: N. meningitidis 2C4.3 bacterial aggregates; experiment: microbe, parasite or virus in culture; format: cell-based, Neisseria meningitidis
Procedure: N. meningitidis 2C4.3 was grown in liquid culture at 10^7 CFU/ml for 2 h to form bacterial aggregates and were treated with increasing concentrations of Trifluoperazine (10 to 40 μM), Gentamicin (150 μg/ml) or cefotaxim (20 μg/ml) for 20 minutes and bacterial aggregates were immediately visualized using a phase-contrast microscope. […] (B) Quantification of the bacterial aggregation was performed using Image J software.
N. meningitidis 2C4.3 wild type strain and the isogenic derivative mutant PilT ([…]PilT) were grown in liquid culture at 10^7 CFU/ml for 2 h to form bacterial aggregates and then treated with 50 μM Trifluoperazine. Time lapse phase-contrast video microscopy was performed to visualize the effect on bacterial aggregates over time. Images were taken at the indicated time points of the video.
N. meningitidis 2C4.3 was grown in liquid culture at 10^7 CFU/ml for 2 h to form bacterial aggregates and were treated with 30 μM Trifluoperazine for 30 minutes to induce bacterial dispersion or PBS as a control. The medium was replaced to remove the Trifluoperazine and the reformation of bacterial aggregates were visualized overtime using a phase-contrast microscope.
FIG. 7. […] Bacteria were grown in suspension for 2 h then Phenothiazine derivatives were added at the indicated concentrations.
N. meninigitidis 2C4.3 strain was grown in suspension in wells of a 24 well plate, containing 1 ml of DMEM medium supplemented with 10% heat-inactivated fetal calf serum. After 2 h of growth, Trifluoperazine (or control vehicle) was added at various concentrations ranging from 10 to 40 μM for 20 min and the bacterial aggregates were visualized over time using a phase-contrast microscope.
N. meninigitidis 2C4.3 strain was grown in suspension in wells of a 24 well plate, containing 1 ml of DMEM medium supplemented with 10% heat-inactivated fetal calf serum. After 2 h of growth, various concentrations (0.5 to 80 μM) of phenothiazine-derivative compounds or control vehicle (PBS or DMSO) were added to the wells for 30 min and the bacterial aggregates were visualized using a phase-contrast microscope.
Were tested phenothiazine-derivative compounds of: • the Piperazine group: Trifluoperazine (Sigma #T8516), Fluphenazine (Sigma #F4765), Prochlorperazine (Sigma #P9178) Perphenazine (Sigma #P6402); • the Piperidine group: Thioridazine (Sigma #T9025) and Mesoridazin (Sigma #M4068); • the Aliphatic group: Chlorpromazine (Sigma #C8138), Promazine (Sigma #P6656), Triflupromazine (Sigma #1686003) and levomepromazine (Sigma #L0500000).

[3] = Trifluoperazine 50 μM in combination with gentamicin 150 μg/ml
[4] = Gentamicin 150 μg/ml for 1 h alone

Row | SMILES | Ezrin recruitment under residual bacteria [1, 3] | dispersion of bacterial colonies at the endothelial cell surface [1, 3] | endothelial cell junction integrity (VE-cadherin staining, gaps between cells) [1, 3] | reversibility of the effect on aggregation upon removal ([2]; 30 μM for 30 minutes, then medium replaced) | dispersion of bacterial aggregates pre-formed for two hours ([2]; 10 to 40 μM, 20 min) | concentration range of dose-dependent dispersion of aggregates ([2]; 20 min treatment, suspension) [µM] | EC80 ([2]; Neisseria meningitidis, 0.5 h, read-out: Concentration promoting efficient meningococcal dispersal (~80%)) [µM] | time after addition at which dispersion occurs ([2]; time lapse video microscopy, 50 μM) [min] | Ezrin recruitment, cortical actin polymerization, VE-cadherin distribution under residual colonies [1, 4] | number of colonies present at the cell surface [1, 4] | dispersion of bacterial aggregates formed in suspension ([2]; Gentamicin 150 μg/ml, 20 minutes)
1 | CN1CCN(CCCN2c3ccccc3Sc3ccc(C(F)(F)F)cc32)CC1 [Trifluoperazine] | Few Ezrin recruitment | induced the dispersion of most of the bacterial colonies | preserved endothelial cell junction integrity | reversible | induced their dispersion | 10 to 40 | 30 | 10 to 15 |  |  | 
2 | CN[C@@H]1[C@@H](O)C(O[C@@H]2[C@@H](O)[C@H](O[C@H]3O[C@H]([C@@H](C)NC)CC[C@H]3N)[C@@H](N)C[C@H]2N)OC[C@]1(C)O (stereo partly drawn) [Gentamicin, (3R,4R,5R)-2-{[(1S,2S,3R,4S,6R)-4,6-diamino-3-{[(2R,3R,6S)-3-amino-6-[(1R)-1-(methylamino)ethyl]oxan-2-yl]oxy}-2-hydroxycyclohexyl]oxy}-5-methyl-4-(methylamino)oxane-3,5-diol] |  |  |  |  |  |  |  |  | still induced Ezrin recruitment | reduced the number of colonies | did not significantly induce the dispersion

Reference: patent publication US20200054646A1, “USE OF PHENOTHIAZINE DERIVATIVE IN THE TREATMENT OF INFECTIOUS PURPURA OR PURPURA FULMINANS” (priority 2016, published 2020)
